Laboratory results as given in PMC12251549, “Engineering a Radiohybrid PSMA Ligand with an Albumin-Binding Moiety and Pharmacokinetic Modulation via an Albumin-Binding Competitor for Radiotheranostics” (Molecules, 2025).

How the values were obtained:
[1] = Biodistribution with post-administration of albumin-binding competitor IPBA; assay type: in vivo, normal mice (ddY); details: normal mice, IPBA at 1 h postinjection, 10 molar equivalent of blood albumin; except in the kidney
Method: To evaluate the effects of an albumin-binding competitor (sodium salt of IPBA) in normal mice, [^125I]5 and [^211At]6 were intravenously co-administered. At 1 h postinjection of the radiolabeled compounds, IPBA (3.4 mg, 11 µmol) dissolved in saline at a 10 molar equivalent of blood albumin was administered. Mice were sacrificed at 65 min, 70 min, 2 h, 4 h, 12 h, and 24 h postinjection of [^125I]5 and [^211At]6. Tissues of interest were treated, and the radioactivity was measured in the same manner as above. Data are also shown as %ID/g or %ID.

[2] = tested on: PSMA-expressing LNCaP cells; experiment: Cellular uptake and internalization in LNCaP cells, blocking with 2-PMPA; assay type: cell-based; details: 2-PMPA 100 µM
Method: Cellular uptake experiments were performed according to a previous report with slight modifications. LNCaP cells expressing PSMA were cultured in RPMI 1640 medium containing 10% fetal bovine serum (FBS) and 1% penicillin–streptomycin on 6-well culture plates (containing 5 × 10^5 cells/well) for 24 h in a humidified atmosphere (5% CO2) incubator at 37 °C. After removing the medium and washing with phosphate-buffered saline (PBS) (−) once, a mixed solution of [^125I]5 and [^211At]6, [^125I]5 and [^67Ga]Ga-PSMA-617, and [^125I]5 and [^67Ga]5 in 1.0 mL of medium without FBS was added (3.7 kBq/each tracer/well). The final concentrations of the radioligands for [^125I]5, [^211At]6, and [^67Ga]5 were 45.5 pM, 0.2 pM, and 2.5 pM, respectively. These solutions containing radioligands were diluted in saline containing 0.05% (w/v) bovine serum albumin (BSA) to prevent adsorption to tubes or plates and further diluted with medium to 0.00125% as the final BSA concentration. After incubation for 10, 60, and 120 min, the medium from each well was removed, and the cells were washed twice with ice-cold PBS (−); the surface of the cells was washed twice with ice-cold 0.2 M glycine buffer (pH 3.0). The cells were lysed using a 1 M NaOH aqueous solution. The radioactivity of ^67Ga,^125I and ^211At in the 1 M NaOH aqueous solution was determined and defined as the internalized radioligand fraction using an auto well gamma counter (ARC-8001, Hitachi, Ltd., Tokyo, Japan) according to a previous paper. The radioactivity was determined with an auto well gamma counter and corrected for background radiation and physical decay during counting. A window from 16 to 69 keV was used for counting ^125I, and a window from 70 to 120 keV was used for counting ^211At. Correlation factors to eliminate any crossover of ^125I activity in the ^211At counts were determined by measuring the ^125I standard in each window. More than one week after the experiments, the radioactivity counts of ^125I were measured after the decay of ^211At. The protein amount in cells was quantified using a BCA Protein Assay Kit (Nacalai Tesque, Kyoto, Japan) according to the manufacturer’s protocol. All data were expressed as percent dose per milligram protein (%dose/mg protein). In blocking experiments, a selective inhibitor of the PSMA, (2S)-2-(phosphonomethyl)pentanedioic acid (2-PMPA) (final concentration 100 µM), was added to each well with tracers. After incubation for 10, 60, and 120 min, radioactivity and protein concentration were determined in the same manner as the experiment without the blocking agent.

[3] = Biodistribution after intravenous co-injection of [125I]5 and [67Ga]Ga-PSMA-617 (Table S1); assay type: in vivo, normal mice (ddY); details: normal mice; for Biodistribution of radioactivity: Blood / Biodistribution of radioactivity: Bone / Biodistribution of radioactivity: Brain / Biodistribution of radioactivity: Heart / Biodistribution of radioactivity: Kidney / Biodistribution of radioactivity: L. Intestine / Biodistribution of radioactivity: Liver / Biodistribution of radioactivity: Lung / Biodistribution of radioactivity: Muscle / Biodistribution of radioactivity: Neck / Biodistribution of radioactivity: Pancreas / Biodistribution of radioactivity: S. Intestine / Biodistribution of radioactivity: Spleen / Biodistribution of radioactivity: Stomach: i.v.
Method: [^67Ga]Ga-PSMA-617 (37 kBq) and [^125I]5 (37 kBq) or [^125I]5 (37 kBq) and [^211At]6 (37 kBq) were intravenously co-administered into three or four normal mice at each timepoint (6 weeks male ddY mice, 28–30 g, Japan SLC, Inc., Hamamatsu, Japan). Mice were sacrificed at 10 min, 1 h, 4 h, and 24 h ([^67Ga]Ga-PSMA-617 and [^125I]5) or at 10 min, 1 h, 4 h, 12 h, and 24 h ([^125I]5 and [^211At]6) postinjection of the radiolabeled compounds. Tissues of interest were removed and weighed, and the radioactivity of ^67Ga and ^125I and ^125I and ^211At were determined with an auto well gamma counter (ARC-8001) and corrected for background radiation as described in the Cellular Uptake Experiments Section. To determine the amount and routes of the radioactivity excreted from the body for 24 h after the injection of radiolabeled compounds, mice were housed in metabolic cages (METABOLICA, SUGIYAMA-GEN Co., Ltd., Tokyo, Japan). Data are shown as the percentage of injected dose per gram of tissues (%ID/g) or %ID.

SMILES: O=C([O-])CN1CCN(CC(=O)[O-])CCN(CC(=O)NC(CCCCNC(=O)CCCc2ccc([125I])cc2)C(=O)NCC2CCC(C(=O)NC(Cc3ccc4ccccc4c3)C(=O)NCCCCC(NC(=O)NC(CCC(=O)O)C(=O)O)C(=O)O)CC2)CCN(CC(=O)[O-])CC1.[Ga+3] (stereo not shown) [[^125I]5]
- Effect of IPBA administration on radioactivity levels in tissues [1]: significantly decreased
- Effect of excess 2-PMPA on cellular uptake [2]: significantly reduced
- Excretion in feces ([3]; 24 h postinjection): 2.3 ± 0.3 %ID
- Excretion in urine ([3]; 24 h postinjection): 10.3 ± 0.7 %ID
- Blood retention ([3]; compared with [67Ga]Ga-PSMA-617): significantly prolonged blood retention
- Biodistribution of radioactivity: Blood ([3]; 10 min after injection): 26.76 (0.56) % injected dose per gram
- Biodistribution of radioactivity: Bone ([3]; 10 min after injection): 2.56 (0.45) % injected dose per gram
- Biodistribution of radioactivity: Brain ([3]; 10 min after injection): 0.66 (0.14) % injected dose per gram
- Biodistribution of radioactivity: Heart ([3]; 10 min after injection): 4.87 (0.63) % injected dose per gram
- Biodistribution of radioactivity: Kidney ([3]; 10 min after injection): 10.29 (0.97) % injected dose per gram
- Biodistribution of radioactivity: L. Intestine ([3]; 10 min after injection): 1.10 (0.07) % injected dose per gram
- Biodistribution of radioactivity: Liver ([3]; 10 min after injection): 3.89 (0.34) % injected dose per gram
- Biodistribution of radioactivity: Lung ([3]; 10 min after injection): 10.56 (0.97) % injected dose per gram
- Biodistribution of radioactivity: Muscle ([3]; 10 min after injection): 0.89 (0.02) % injected dose per gram
- Biodistribution of radioactivity: Neck ([3]; 10 min after injection): 0.04 (0.01) % injected dose
- Biodistribution of radioactivity: Pancreas ([3]; 10 min after injection): 3.05 (0.20) % injected dose per gram
- Biodistribution of radioactivity: S. Intestine ([3]; 10 min after injection): 2.11 (0.10) % injected dose per gram
- Biodistribution of radioactivity: Spleen ([3]; 10 min after injection): 3.22 (0.38) % injected dose per gram
- Biodistribution of radioactivity: Stomach ([3]; 10 min after injection): 0.78 (0.10) % injected dose
- Biodistribution of radioactivity: Blood ([3]; 1 h after injection): 16.99 (1.80) % injected dose per gram
- Biodistribution of radioactivity: Bone ([3]; 1 h after injection): 2.18 (0.26) % injected dose per gram
- Biodistribution of radioactivity: Brain ([3]; 1 h after injection): 0.44 (0.19) % injected dose per gram
- Biodistribution of radioactivity: Heart ([3]; 1 h after injection): 4.00 (0.35) % injected dose per gram
- Biodistribution of radioactivity: Kidney ([3]; 1 h after injection): 6.22 (0.27) % injected dose per gram
- Biodistribution of radioactivity: L. Intestine ([3]; 1 h after injection): 1.16 (0.18) % injected dose per gram
- Biodistribution of radioactivity: Liver ([3]; 1 h after injection): 2.67 (0.11) % injected dose per gram
- Biodistribution of radioactivity: Lung ([3]; 1 h after injection): 9.59 (2.25) % injected dose per gram
- Biodistribution of radioactivity: Muscle ([3]; 1 h after injection): 1.06 (0.06) % injected dose per gram
- Biodistribution of radioactivity: Neck ([3]; 1 h after injection): 0.03 (0.01) % injected dose
- Biodistribution of radioactivity: Pancreas ([3]; 1 h after injection): 2.30 (0.22) % injected dose per gram
- Biodistribution of radioactivity: S. Intestine ([3]; 1 h after injection): 2.02 (0.21) % injected dose per gram
- Biodistribution of radioactivity: Spleen ([3]; 1 h after injection): 2.01 (0.29) % injected dose per gram
- Biodistribution of radioactivity: Stomach ([3]; 1 h after injection): 0.75 (0.08) % injected dose
- Biodistribution of radioactivity: Blood ([3]; 4 h after injection): 14.52 (0.22) % injected dose per gram
- Biodistribution of radioactivity: Bone ([3]; 4 h after injection): 1.57 (0.64) % injected dose per gram
- Biodistribution of radioactivity: Brain ([3]; 4 h after injection): 0.30 (0.03) % injected dose per gram
- Biodistribution of radioactivity: Heart ([3]; 4 h after injection): 3.97 (0.22) % injected dose per gram
- Biodistribution of radioactivity: Kidney ([3]; 4 h after injection): 6.93 (0.24) % injected dose per gram
- Biodistribution of radioactivity: L. Intestine ([3]; 4 h after injection): 2.03 (0.07) % injected dose per gram
- Biodistribution of radioactivity: Liver ([3]; 4 h after injection): 2.76 (0.11) % injected dose per gram
- Biodistribution of radioactivity: Lung ([3]; 4 h after injection): 8.37 (0.62) % injected dose per gram
- Biodistribution of radioactivity: Muscle ([3]; 4 h after injection): 1.41 (0.07) % injected dose per gram
- Biodistribution of radioactivity: Neck ([3]; 4 h after injection): 0.03 (0.00) % injected dose
- Biodistribution of radioactivity: Pancreas ([3]; 4 h after injection): 2.33 (0.13) % injected dose per gram
- Biodistribution of radioactivity: S. Intestine ([3]; 4 h after injection): 1.99 (0.14) % injected dose per gram
- Biodistribution of radioactivity: Spleen ([3]; 4 h after injection): 1.59 (0.35) % injected dose per gram
- Biodistribution of radioactivity: Stomach ([3]; 4 h after injection): 0.69 (0.08) % injected dose
- Biodistribution of radioactivity: Blood ([3]; 24 h after injection): 9.84 (0.85) % injected dose per gram
- Biodistribution of radioactivity: Bone ([3]; 24 h after injection): 1.57 (0.22) % injected dose per gram
- Biodistribution of radioactivity: Brain ([3]; 24 h after injection): 0.30 (0.03) % injected dose per gram
- Biodistribution of radioactivity: Heart ([3]; 24 h after injection): 2.85 (0.36) % injected dose per gram
- Biodistribution of radioactivity: Kidney ([3]; 24 h after injection): 7.37 (0.99) % injected dose per gram
- Biodistribution of radioactivity: L. Intestine ([3]; 24 h after injection): 1.15 (0.35) % injected dose per gram
- Biodistribution of radioactivity: Liver ([3]; 24 h after injection): 1.59 (0.34) % injected dose per gram
- Biodistribution of radioactivity: Lung ([3]; 24 h after injection): 6.18 (0.83) % injected dose per gram
- Biodistribution of radioactivity: Muscle ([3]; 24 h after injection): 1.08 (0.11) % injected dose per gram
- Biodistribution of radioactivity: Neck ([3]; 24 h after injection): 0.02 (0.00) % injected dose
- Biodistribution of radioactivity: Pancreas ([3]; 24 h after injection): 1.66 (0.46) % injected dose per gram
- Biodistribution of radioactivity: S. Intestine ([3]; 24 h after injection): 1.11 (0.31) % injected dose per gram
- Biodistribution of radioactivity: Spleen ([3]; 24 h after injection): 1.62 (0.16) % injected dose per gram
- Biodistribution of radioactivity: Stomach ([3]; 24 h after injection): 0.67 (0.13) % injected dose
